In patent US20190225643A1, “NOVEL NUCLEOSIDE ANALOGS AND USE THEREOF IN THERAPEUTIC TREATMENT” (CORNELL UNIVERSITY, priority 2016, published 2019):

Tests used:
[1] = test system: KSHV lytic reactivation in JSC1 PEL cell line; assay: Lytic reactivation flow assay in rKSHV.219 infected JSC1 cells; format: cell-based; conditions: in a small proportion of cells; 1 or 10 μM, 24 or 48 hours
Method: Lytic reactivation low was performed as previously described (Soulier J. et al., Blood 1995;86(4):1276-80). JSC1 B3.1 cells in the exponential phase were seeded at 2*10^5 cells/mL and treated with 1 or 10 μM 6-ETI for 24 or 48 hours, or 20 ng/mL lytic inducer TPA for 48 hours.

ADK = ADK (Homo sapiens, UniProt P55263); assay: In vitro ADK kinase assay with HPLC/MS; format: biochemical; conditions: 37° C., 5-360 minutes
Sequence of ADK (P55263 whole entry): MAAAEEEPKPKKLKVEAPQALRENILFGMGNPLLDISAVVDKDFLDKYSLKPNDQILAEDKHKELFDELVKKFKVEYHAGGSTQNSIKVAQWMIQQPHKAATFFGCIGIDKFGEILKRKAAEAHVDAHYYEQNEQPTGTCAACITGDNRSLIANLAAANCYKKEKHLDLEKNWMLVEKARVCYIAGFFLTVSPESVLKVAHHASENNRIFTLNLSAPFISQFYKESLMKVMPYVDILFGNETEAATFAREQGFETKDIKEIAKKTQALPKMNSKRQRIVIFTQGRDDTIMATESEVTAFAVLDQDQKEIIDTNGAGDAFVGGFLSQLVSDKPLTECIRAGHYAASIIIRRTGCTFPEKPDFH
Method: The ADK kinase assay kit was purchased from Novocib, France. ADK and ATP provided in the kit were premixed into provided kinase assay buffer. The reaction at 37° C. was started by addition of 6-ETI in DMSO at T=0, followed by quenching of 10 μL of the reaction by 30 μL acetonitrile in an eppendorf tube at 5, 10, 15, 30, 60, 120, 150, 180, and 360 minutes. The quenched reaction was briefly vortexed and centrifuged at ˜7000 g, following which the supernatant was transferred into a fresh tube and stored at 4° C. for HPLC/MS analysis. A control reaction was set up containing ADK, ATP, and Inosine, in order to generate a standard peak for IMP, while ADK, DTT, and ATP controls were generated by dissolving individual kit components in a 3:1 acetonitrile:dH2O solution.
LCMS separations were performed using a Waters ACQUITY UPLC system equipped with ACQUITY PDA (diode array), Waters Micromass SQD 2000 spectrometer, and a Waters ACQUITY BEH C18 column (1.7 μm, 2.1×100 mm). The solvent system consisted of 0.1% Formic Acid in Water (Solvent A) and 0.1% Formic Acid in Acetonitrile (Solvent B). Flow was set to 0.3 mL/min, and a gradient of 5-95% Solvent B was applied over a period of 3 minutes. Total runtime was 4 minutes. Eluents were detected using a PDA at a wavelength of 254 nm. Mass data was obtained in both positive and negative electrospray mode, at a cone voltage of 30V.

[2] = test system: CAG-luc multiple myeloma xenograft; assay: Disseminated multiple myeloma xenograft model; format: in vivo, mouse
Method: For the disseminated multiple myeloma xenograft model, CAG cells were kindly provided by Dr. Malcolm Moore lab at MSKCC. 1×10^7 of CAG cells stably expressing the HSV-TK-eGFP-luciferase fusion protein were injected intravenously into NOD/SCID (NOD/LTSZPrko/J, the Jackson Laboratory Stock# 001303). Eight days after tumor induction, mice were randomized into control and treated cohorts and treated intraperitoneally with either PBS 0.05% tween 80 (vehicle) or 200 mg/kg of 6-ETI daily for 9 days. Tumor mass or bioluminescence (photons/s/cm^2/steradian) was evaluated by imaging the mice using IVIS Imaging system. Statistical analysis was done using a two-tailed, unpaired Student's t-test using GraphPad prism.

[3] = test system: IBL1, LY7 and BCKN1 cells; assay: Viability assay at higher plating density; format: cell-based; conditions: 5*10^5 cells/mL versus original assay conditions
Method: […] ATP content at 24, 48 and 72 hours post-treatment was measured by the CellTiter-Glo kit (Promega, Madison, Wis.), or by Trypan blue assay as indicated. The LC50 for 6-ETI in each cell line was determined using online EC50 software at changbioscience.com or using GraphPad Prism to determine the LC50 for 6-ETI, phospho-6-ETI and nucleoside analogs in MM cell lines and primary MM patient samples.

[4] = test system: normal plasma cells (CD19-, CD138+) from human tonsils; assay: Toxicity on normal primary tonsillar lymphocytes; format: cell-based; conditions: 1 μM and 10 μM, 24 hours
Method: Primary human tonsil specimens were obtained from the Weill Cornell/New York Presbyterian Institutional Biobank. Lymphocytes were isolated from human tonsil tissue by dissection and maceration in RPMI media. Lymphocyte-containing media was passed through a 70 μm filter and pelleted at 400 g for 7 minutes. RBC were lysed for 5 minutes in RBC lysing solution (0.15M ammonium chloride, 10 mM potassium bicarbonate, […]). After dilution to 50 ml with RPMI, lymphocytes were filtered through a […] filter, counted and pelleted a second time. Total B cells were isolated using magnetic cell sorting according to manufacturer instructions (Miltenyi Cat#130-091-151). Cells were plated at 2 million cells/ml in RPMI with 20% FBS and 100 μg/ml Primocin (Invivogen) and laid over gamma-irradiated CDW32 feeder cells. Cells were then treated with DMSO, 1 μM or 10 μM 6-ETI for 24 hrs. […] Data was acquired on a BD LSR2 Flow Cytometer and analyzed using FlowJo software. The frequency of plasma cells was assessed based on singlet-gated cells expressing CD138.

CCSc1ncnc2c1ncn2[C@@H]1O[C@H](CO)C(O)[C@@H]1O (stereo partly shown) [Compound 6-ETI, 6-ethylthioinosine]
lytic reactivation [1]: induction of lytic reactivation
phosphorylation by ADK (ADK): ADK phosphorylates 6-ETI directly
tumor burden (bioluminescent signal) ([2]; 200 mg/kg/day i.p. for 9 days): significant reduction in tumor burden
weight loss ([2]; 200 mg/kg/day i.p. for 9 days): without any weight loss
overall survival ([2]; 200 mg/kg/day, P<0.005): significantly prolonged
LC50 change at higher cell density [3]: decreased strikingly
total number or proportion of normal plasma cells [4]: did not find a decrease in the total number or proportion of plasma cells
